Assay results as given in patent publication US10350204B2, “Methods for treating cognitive deficits associated with fragile X syndrome” (Wisconsin Alumni Research Foundation, priority 2015, dated 2019).

Assays:
[1] = Overall health and body weight of treated mice; type: in vivo, mouse; settings: wildtype and Fmr1 KO mice; Nutlin-3 10 mg/kg, 5 injections
Method: All animal procedures were performed according to protocols approved by the University of Wisconsin-Madison Care and Use Committee. All mice were on C57B/L6 genetic background. The Fmr1 KO/Nestin-GFP mice (Fmr1−/y::Nestin-GFP) were created by crossing female Fmr1 heterozygous KO mice (Fmr1+/−) (59) with homozygous Nestin-GFP transgenic males (60). Generation of FMRP inducible conditional mutant mice (Fmr1loxP/y::Nestin-CreERT2::Rosa26-tdt) and tamoxifen injections to induce recombination were performed as described (12). To induce recombination, mice (6-weeks old) received Tamoxifen (Sigma-Aldrich) daily for 5 d (160 mg/kg) as described (12). Nutlin-3 (10 mg/kg) was given to 7-8 week-old mice or 20-week old mice through IP injections every other day for 5 injections and sacrificed at either 24 hours, 4 weeks, 12, or 20 weeks after the last injection. For NSC differentiation analysis, mice also received four BrdU injections (100 mg/kg) between day 2 and 3 of Nutlin-3 injections. To induce recombination in FMRP inducible conditional mutant mice (Fmr1^loxP/y::Nestin-CreER^T2::Rosa26-tdt) mice, mice 6-weeks old male mice received Tamoxifen (Sigma-Aldrich) daily for 5 days (160 mg kg-1 i.p., 30 mg ml^−1 in 10% ethanol mixed with sunflower oil, SigmaAldrich) based on a published procedure (13). BrdU (Sigma-Aldrich, B5002) was made in a concentration of 20 mg/mL in PBS. […]

[2] = system: Fmr1 KO mice; assay: Novel object recognition (NOR) test; type: in vivo, mouse
Method: (§1) All animal procedures were performed according to protocols approved by the University of Wisconsin-Madison Care and Use Committee. All mice were on C57B/L6 genetic background. The Fmr1 KO/Nestin-GFP mice (Fmr1−/y::Nestin-GFP) were created by crossing female Fmr1 heterozygous KO mice (Fmr1+/−) (59) with homozygous Nestin-GFP transgenic males (60). Generation of FMRP inducible conditional mutant mice (Fmr1loxP/y::Nestin-CreERT2::Rosa26-tdt) and tamoxifen injections to induce recombination were performed as described (12). To induce recombination, mice (6-weeks old) received Tamoxifen (Sigma-Aldrich) daily for 5 d (160 mg/kg) as described (12). Nutlin-3 (10 mg/kg) was given to 7-8 week-old mice or 20-week old mice through IP injections every other day for 5 injections and sacrificed at either 24 hours, 4 weeks, 12, or 20 weeks after the last injection. For NSC differentiation analysis, mice also received four BrdU injections (100 mg/kg) between day 2 and 3 of Nutlin-3 injections. To induce recombination in FMRP inducible conditional mutant mice (Fmr1^loxP/y::Nestin-CreER^T2::Rosa26-tdt) mice, mice 6-weeks old male mice received Tamoxifen (Sigma-Aldrich) daily for 5 days (160 mg kg-1 i.p., 30 mg ml^−1 in 10% ethanol mixed with sunflower oil, SigmaAldrich) based on a published procedure (13). BrdU (Sigma-Aldrich, B5002) was made in a concentration of 20 mg/mL in PBS. Nutlin-3 (Nt3, Cayman Chemical, 10004372) was made in a concentration of 100 mg/mL in dimethyl sulfoxide (DMSO).
This test is based on the natural propensity of rodents to preferentially explore novel objects over familiar ones. The experimental procedure was performed as previously described (38). On the first day, mice were habituated for 10 min to the maze in which the task was performed. On the second day, mice were put back in the maze for 10 min, and two identical objects were presented. 24 hours later, one of the familiar objects was replaced with a novel object, and the mice were again placed in the maze and were allowed to explore for 10 min, and the total time spent exploring each of the two objects (novel and familiar) was measured. The discrimination index was calculated as the difference between the percentages of time spent investigating the novel object and the time spent investigating the familiar objects: discrimination index=(novel object exploration time/total exploration time×100)−(familiar object exploration time/total exploration time×100). All experiments were videotaped and scored by scientists who were blinded to experimental conditions.

[3] = system: Fmr1 KO and wildtype NPCs; assay: Cell death analysis (PI/Hoechst, CellTiter-Glo viability) of NPCs; type: cell-based, mouse; settings: 2 μM Nutlin-3
Description: Three different methods were used to assay cell death. Fluorescein isothiocyanate and propidium iodide (Annexin V-FITC Apoptosis Detection Kit, Sigma, #APOAF) were used to assess NSC apoptosis. Intact cells were Annexin V^−PI^−. Early and late apoptotic cells were Annexin V^+PI^− and Annexin V^+PI^+, respectively. Necrotic cells were Annexin V−PI+. The number of early apoptotic cells (Annexin V^+PI^−; Phase II) and late apoptotic cells (Annexin V^+PI^+, Phase I) were used to calculate the percentage of apoptotic cells. In a second method, propidium iodide (1 mg/mL) and […] (1 mM) were added to cultured cells for 15 min, followed by high content imaging analysis (Oppretta, GE) to quantify the percentage of Hoechst positive (all) cells that are PI positive (dead) cells. In the third method, Cell viability was measured using CellTiter-Glo Luminescent Cell Viability Assay (Promega). 2 μM Nutlin-3 (Nt3, Selleckchem, 51061) was added to proliferating aNPCs at 6 hours post-plating. Cells were then harvested 24 hours later with CellTiter-Glo buffer at room temperature. Signal intensity was immediately measured using a Glomax plate reader (Promega) according to manufacturer's instruction.

[4] = system: Fmr1 KO mice; assay: Novel location test (NLT); type: in vivo, mouse; settings: for spatial memory deficits in the novel location test, long-term effect: tested at 24 weeks old
Method: as §1
This test measures spatial memory through an evaluation of the ability of mice to recognize the new location of a familiar object with respect to spatial cues. The experimental procedure was performed as previously described (65). The mice were exposed to 2 identical objects for 6 minutes during the acquisition phase 3 times and tested at 3 minutes later. Object preference was evaluated during this session. During the trial session, one of the objects was moved to a novel location, and the mice were allowed to explore the objects for 6 minutes, and the total time spent exploring each object was measured. Exploration was considered as any investigative behavior (i.e., head orientation, sniffing occurring within <1.0 cm) or deliberate contact occurring with each object. The discrimination index was calculated as the percentage of time spent investigating the object in the new location minus the percentage of time spent investigating the object in the old location: discrimination index=(Novel Location exploration time/total exploration time×100)−(old Location exploration time/total exploration time×100). All experiments were videotaped and scored by scientists who were blinded to experimental conditions.

[5] = system: Fmr1 KO and wildtype NPCs; assay: BrdU proliferation assay of cultured NPCs; type: cell-based, mouse
Method: We used only early passage cells (between passage 4 and 10) and only the same passage numbers of wildtype and Fmr1 KO cells. For each experiment, triplicate wells of cells were analyzed, and results were averaged as one data point (n=1). At least 3 independent biological replicates were used (n=3) for statistical analyses.
We used only early passage cells (between passage 4 and 10) and only the same passage numbers of wild type (WT) and Fmr1 KO cells. For each experiment, triplicate wells of cells were analyzed, and results were averaged as one data point (n=1). At least 3 independent experiments (n=3) were performed and used for statistical analyses for each analysis. To study cell proliferation, we dissociated neural stem cells with trypsin and plated them on poly-L-ornithine and laminin-coated 24 well plate (Scientific fisher, 87721) at a density of 100,000 cells per well in proliferation medium. At 20 h post-plating, 5 μM 5-bromo-2.′-deoxyuridine (BrdU, Sigma-Aldrich) was added into the culture medium for 6 h. NPCs were then washed with PBS and fixed with 4% paraformaldehyde for 30 min at room temperature, followed by immunohistochemical analysis. To detect BrdU incorporation, fixed cells were pretreated with 1M HCl for 30 min at 37° C., and then washed with borate buffer, pH 8.5, for 30 min. We then followed our standard immunohistochemistry protocol^10. BrdU incorporation assay was determined using an Operetta high content imaging system (PerkinElmer, Inc) and Harmony quantification software (PerkinElmer, Inc). The percentage of proliferating cells was defined as the number of BrdU-labeled cells divided by total DAPI-positive cells.
For proliferation assay in vitro, 1 μM MK2206 (Selleckchem, S1078) (AKT phosphorylation inhibitor), or 2 μM Nutlin-3 (Nt3, Selleckchem, 51061) (Mdm2 inhibitor), or 1 μM RG7112 (Selleckchem, S7030) (Mdm2 inhibitor) or YH239-EE (Selleckchem 57489) (4 μM) (Mdm2 inhibitor) was added to proliferating NPCs at 6 hours post-plating. Cells were then pulse labeled 18 hours later with 5 μM 5-bromo-2′-deoxyuridine (BrdU, Sigma-Aldrich, B5002) and incubated for 6 hours in the presence of inhibitor, followed by fixation, staining, and quantification.

[6] = Fmr1 KO mice treated at 20 weeks old (middle aged), 24-weeks-old at test
[7] = Fmr1 KO mice, treated as young adults, tested 4 weeks later
[8] = wildtype mice, tested 4 weeks after treatment

Compound: COc1ccc(C2=N[C@@H](c3ccc(Cl)cc3)[C@@H](c3ccc(Cl)cc3)N2C(=O)N2CCNC(=O)C2)c(OC(C)C)c1 [Nutlin-3]
- overall health and body weight [1]: no significant effect on overall health and body weight
- cognitive deficits in the NOR test, long-term effect ([2]; Fmr1 KO mice treated at 8 weeks old, tested at 24 weeks old): long-term effects to fully rescue cognitive deficits
- cognitive deficits in the NOR test [2, 6]: fully rescued cognitive deficits
- performance on the novel object recognition test (discrimination index) [2, 7]: rescued performance
- performance on the novel object recognition test (discrimination index) [2, 8]: no significant effect on wildtype mice
- cell death and survival ([3]; Fmr1 KO NPCs): did not exhibit significant effects on cell death and survival
- cell death and survival ([3]; wildtype NPCs): did not exhibit significant effects on cell death and survival
- spatial memory deficits in the novel location test, long-term effect ([4]; Fmr1 KO mice treated at 8 weeks old): long-term effects to fully rescue spatial memory deficits
- spatial memory deficits in the novel location test [4, 6]: fully rescued spatial memory deficits
- performance on the novel location test (discrimination index) [4, 7]: rescued performance
- spatial memory deficits in the novel location test, long-term effect ([4]; Fmr1 conditional KO mice treated at 8 weeks old): long-term effects to fully rescue spatial memory deficits
- performance on the novel location test (discrimination index) [4, 8]: no significant effect on wildtype mice
- cell proliferation (BrdU+ cells) ([5]; Fmr1 KO NPCs, 1 μM MK2206, 2 μM Nutlin-3, 1 μM RG7112, 4 μM YH239-EE): reduced the proliferation
- cell proliferation (BrdU+ cells) ([5]; wildtype NPCs, 1 μM MK2206, 2 μM Nutlin-3): without a significant effect on wildtype NPCs
